Test results reported in ChEMBL document CHEMBL1667722, “Radical scavenging and antioxidant activities of isocoumarins and a phthalide from the endophytic fungus Colletotrichum sp” (J Nat Prod, 2011).

Legend:
MOLT-3 = test: Cytotoxicity against human MOLT3 cells by XTT assay; type: functional, cell-based
HepG2 = test: Cytotoxicity against human HepG2 cells by MTT assay; type: functional, cell-based
[1] = Antioxidant activity assessed as inhibition of xanthine-xanthine oxidase generated superoxide anion radical production; type: functional
A549 = test: Cytotoxicity against human A549 cells by MTT assay; type: functional, cell-based
HL-60 = test: Antioxidant activity in human HL60 cells assessed as inhibition of TPA-induced superoxide anion radical production; type: functional, cell-based
Aromatase = molecular target: T1, Aromatase (Homo sapiens, UniProt P11511); test: Inhibition of CYP19
T1 sequence (P11511 whole entry): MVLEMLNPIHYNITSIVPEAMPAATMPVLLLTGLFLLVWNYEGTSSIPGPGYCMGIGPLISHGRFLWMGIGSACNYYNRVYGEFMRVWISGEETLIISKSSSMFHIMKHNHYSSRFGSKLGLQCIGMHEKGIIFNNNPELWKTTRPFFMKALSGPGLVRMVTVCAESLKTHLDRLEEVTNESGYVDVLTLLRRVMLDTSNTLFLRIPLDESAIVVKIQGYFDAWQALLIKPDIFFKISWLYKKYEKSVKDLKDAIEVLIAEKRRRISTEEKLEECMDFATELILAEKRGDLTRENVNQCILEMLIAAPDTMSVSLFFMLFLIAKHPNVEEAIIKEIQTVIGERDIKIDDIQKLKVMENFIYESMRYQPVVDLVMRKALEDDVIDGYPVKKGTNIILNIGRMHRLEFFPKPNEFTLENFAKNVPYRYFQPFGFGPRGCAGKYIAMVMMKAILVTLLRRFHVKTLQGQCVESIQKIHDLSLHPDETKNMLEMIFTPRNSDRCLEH

[2] = molecular target: Xanthine dehydrogenase/oxidase (Homo sapiens, UniProt P47989); test: Inhibition of Xanthine oxidase
[3] = test system: Radical scavenging activity; test: Antioxidant activity assessed as DPPH radical scavenging activity; type: functional
[4] = Cytotoxicity against human HuCCA1 cells by MTT assay; type: functional, cell-based; details: HuCC-A1

Xanthine dehydrogenase/oxidase, sequence (P47989 whole entry): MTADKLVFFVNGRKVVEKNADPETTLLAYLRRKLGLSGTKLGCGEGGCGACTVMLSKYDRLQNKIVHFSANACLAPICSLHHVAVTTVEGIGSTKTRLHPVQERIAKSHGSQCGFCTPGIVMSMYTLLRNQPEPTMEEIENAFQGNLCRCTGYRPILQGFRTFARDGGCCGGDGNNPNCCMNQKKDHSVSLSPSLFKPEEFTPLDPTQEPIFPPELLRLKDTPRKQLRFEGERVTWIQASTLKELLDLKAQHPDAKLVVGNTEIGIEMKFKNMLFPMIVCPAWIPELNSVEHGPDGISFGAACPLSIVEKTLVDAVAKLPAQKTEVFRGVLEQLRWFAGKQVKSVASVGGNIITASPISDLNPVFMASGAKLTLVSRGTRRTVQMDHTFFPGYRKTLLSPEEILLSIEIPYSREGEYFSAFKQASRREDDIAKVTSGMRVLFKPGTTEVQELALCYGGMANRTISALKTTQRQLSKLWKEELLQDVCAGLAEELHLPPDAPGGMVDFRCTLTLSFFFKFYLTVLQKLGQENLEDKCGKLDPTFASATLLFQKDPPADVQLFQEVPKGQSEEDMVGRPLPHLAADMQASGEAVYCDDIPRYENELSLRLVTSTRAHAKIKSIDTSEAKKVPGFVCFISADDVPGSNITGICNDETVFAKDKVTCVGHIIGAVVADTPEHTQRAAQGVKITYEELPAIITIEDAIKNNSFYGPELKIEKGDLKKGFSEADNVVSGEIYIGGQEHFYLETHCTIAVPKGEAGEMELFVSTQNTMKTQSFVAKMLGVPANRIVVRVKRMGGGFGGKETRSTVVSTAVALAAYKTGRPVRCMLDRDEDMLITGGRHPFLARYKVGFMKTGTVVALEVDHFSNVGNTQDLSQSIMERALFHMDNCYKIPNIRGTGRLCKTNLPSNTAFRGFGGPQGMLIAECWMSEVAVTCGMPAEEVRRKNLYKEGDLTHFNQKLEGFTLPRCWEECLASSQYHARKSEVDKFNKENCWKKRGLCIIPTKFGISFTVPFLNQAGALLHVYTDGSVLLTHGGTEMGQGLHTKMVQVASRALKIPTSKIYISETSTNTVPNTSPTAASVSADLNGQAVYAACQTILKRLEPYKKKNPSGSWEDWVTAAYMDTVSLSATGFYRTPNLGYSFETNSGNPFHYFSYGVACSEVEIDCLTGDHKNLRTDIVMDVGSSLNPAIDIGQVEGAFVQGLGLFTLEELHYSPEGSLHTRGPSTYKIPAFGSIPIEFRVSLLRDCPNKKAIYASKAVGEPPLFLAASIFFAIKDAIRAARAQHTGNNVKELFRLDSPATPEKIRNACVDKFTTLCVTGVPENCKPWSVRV

Structure (SMILES) | IC50 (MOLT-3) [µM] | IC50 (HepG2) [µM] | IC50 [1] [µM] | IC50 (A549) [µM] | IC50 (HL-60) [µM] | IC50 (Aromatase) [µM] | IC50 [2] [µM] | IC50 [3] [µM] | IC50 [4] [µM]
COc1cc([C@@H]2c3cc4c(cc3[C@@H](O[C@@H]3O[C@@H]5CO[C@@H](C)O[C@H]5[C@H](O)[C@H]3O)[C@H]3COC(=O)[C@H]23)OCO4)cc(OC)c1O [ETOPOSIDE] | 0.03 | 15.8 |  |  |  |  |  |  | 
Oc1ncnc2[nH]ncc12 [ALLOPURINOL] |  |  | 3 |  |  |  |  |  | 
CCC[C@H]1C[C@H]2OC(=O)c3c(cc(OC)c(OC)c3O)[C@H]2O1 [MONOCERIN] | 153 | > 162 | > 648 | > 162 | > 130 | > 16.2 | > 648 | > 324 | > 162
CCC[C@H](O)C[C@@H]1Cc2cc(OC)c(O)c(O)c2C(=O)O1 [FUSARENTIN 6-METHYL ETHER] | > 169 |  | 4.3 |  | > 135 | > 16.8 | > 675 | 16.4 | 
CCC[C@H]1C[C@H]2OC(=O)c3c(cc(OC)c(O)c3O)[C@H]2O1 | 124 | 23.7 | 52.6 | > 170 | > 136 | > 16.9 | > 679 | 23.4 | > 170
CCCC(=O)CC[C@H]1OC(=O)c2c1cc(OC)c(OC)c2O [COLLETOTRIALIDE] | 148 | > 162 |  | > 162 | > 130 | > 16.2 | > 648 | > 324 | > 162
O=C1O[C@H]([C@@H](O)CO)C(O)=C1O [ASCORBIC ACID] |  |  |  |  |  |  |  | 21.2 | 
CCC[C@@H](O)C[C@H]1OC(=O)c2c(cc(OC)c(OC)c2O)[C@H]1O | > 153 |  | 352 |  | > 122 | > 15.3 | > 612 | > 306 | 
CCC[C@H](O)C[C@@H]1Cc2cc(OC)c(OC)c(O)c2C(=O)O1 [FUSARENTIN 6,7-DIMETHYLETHER] | 115 | 121 |  | > 161 | > 128 | > 16.1 | > 644 | > 322 | > 161
COc1cccc2c1C(=O)c1c(O)c3c(c(O)c1C2=O)C[C@@](O)(C(=O)CO)C[C@@H]3O[C@H]1C[C@H](N)[C@H](O)[C@H](C)O1 [DOXORUBICIN] |  | 0.29 |  | 0.34 |  |  |  |  | 0.67
